| Compound | melting point [°C] |
| --- | --- |
| CCc1ccc(CC(=O)Nc2ccc(S(N)(=O)=O)cc2)cc1Oc1cc(C#N)cc(C(F)F)c1 [Compound I-91, 2-[3-(3-Cyano-5-difluoromethyl-phenoxy)-4-ethyl-phenyl]-N-(4-sulfamoyl-phenyl)-acetamide] | 188 to 198 |
| COc1ccc(CC(=O)Nc2ccc(S(N)(=O)=O)cc2)cc1Oc1cc(C#N)cc(C(F)F)c1 [Compound I-92, 2-[3-(3-Cyano-5-difluoromethyl-phenoxy)-4-methoxy-phenyl]-N-(4-sulfamoyl-phenyl)-acetamide] | 213.9 to 214.2 |
| COc1ccc(CC(=O)Nc2ccc(S(N)(=O)=O)cc2C)cc1Oc1cc(C#N)cc(C(F)F)c1 [Compound I-93, 2-[3-(3-Cyano-5-difluoromethyl-phenoxy)-4-methoxy-phenyl]-N-(2-methyl-4-sulfamoyl-phenyl)-acetamide] | 175 to 177.2 |
| COc1ccc(CC(=O)Nc2ccc(S(N)(=O)=O)cc2Cl)cc1Oc1cc(C#N)cc(C(F)F)c1 [Compound I-94, N-(2-Chloro-4-sulfamoyl-phenyl)-2-[3-(3-cyano-5-difluoromethyl-phenoxy)-4-methoxy-phenyl]-acetamide] | 185 to 187.9 |
| CC(F)(F)c1cc(C#N)cc(Oc2c(Cl)ccc(CC(=O)Nc3ccc(S(N)(=O)=O)cc3)c2F)c1 [Compound I-95, 2-{4-Chloro-3-[3-cyano-5-(1,1-difluoro-ethyl)-phenoxy]-2-fluoro-phenyl}-N-(4-sulfamoyl-phenyl)-acetamide] | 207 to 209.8 |
| Cc1cc(S(N)(=O)=O)ccc1NC(=O)Cc1ccc(Cl)c(Oc2cc(C#N)cc(C(C)(F)F)c2)c1F [Compound I-96, 2-{4-Chloro-3-[3-cyano-5-(1,1-difluoro-ethyl)-phenoxy]-2-fluoro-phenyl}-N-(2-methyl-4-sulfamoyl-phenyl)-acetamide] | 198.5 to 201 |
| CC(F)(F)c1cc(C#N)cc(Oc2c(Cl)ccc(CC(=O)Nc3ccc(S(N)(=O)=O)cc3Cl)c2F)c1 [Compound I-97, 2-{4-Chloro-3-[3-cyano-5-(1,1-difluoro-ethyl)-phenoxy]-2-fluoro-phenyl}-N-(2-chloro-4-sulfamoyl-phenyl)-acetamide] | 192 to 197.6 |
| CCC(=O)N(C)S(=O)(=O)c1ccc(NC(=O)Cc2ccc(Cl)c(Oc3cc(Cl)cc(C#N)c3)c2F)c(C)c1 [Compound I-99, 2-[4-Chloro-3-(3-chloro-5-cyano-phenoxy)-2-fluoro-phenyl]-N-[2-methyl-4-(methyl-propionyl-sulfamoyl)-phenyl]-acetamide] | 212 to 216.9 |
| N#Cc1cc(Cl)cc(Oc2c(Cl)ccc(CC(=O)Nc3ccc(S(N)(=O)=O)cc3Cl)c2F)c1 [Compound I-100, 2-[4-Chloro-3-(3-chloro-5-cyano-phenoxy)-2-fluoro-phenyl]-N-(2-chloro-4-sulfamoyl-phenyl)-acetamide] | 234.4 to 234.9 |
| COc1cc(CC(=O)Nc2ccc(S(N)(=O)=O)cc2)cc(Oc2cc(C#N)ccc2Cl)c1 [Compound I-102, 2-[3-(2-Chloro-5-cyano-phenoxy)-5-methoxy-phenyl]-N-(4-sulfamoyl-phenyl)-acetamide] | 180.5 to 181.3 |
| COc1cc(CC(=O)Nc2ccc(S(N)(=O)=O)cc2C)cc(Oc2cc(C#N)ccc2Cl)c1 [Compound I-103, 2-[3-(2-Chloro-5-cyano-phenoxy)-5-methoxy-phenyl]-N-(2-methyl-4-sulfamoyl-phenyl)-acetamide] | 179.8 to 184 |
| CCc1cc(CC(=O)Nc2ccc(S(N)(=O)=O)cc2C)cc(Oc2cc(C#N)ccc2Cl)c1 [Compound I-106, 2-[3-(2-Chloro-5-cyano-phenoxy)-5-ethyl-phenyl]-N-(2-methyl-4-sulfamoyl-phenyl)-acetamide] | 231.6 to 233.1 |
| CCc1cc(CC(=O)Nc2ccc(S(N)(=O)=O)cc2Cl)cc(Oc2cc(C#N)ccc2Cl)c1 [Compound I-107, 2-[3-(2-Chloro-5-cyano-phenoxy)-5-ethyl-phenyl]-N-(2-chloro-4-sulfamoyl-phenyl)-acetamide] | 204 to 207 |
| CNS(=O)(=O)c1ccc(NC(=O)Cc2ccc(Cl)c(Oc3cc(Cl)cc(C#N)c3)c2F)c(C)c1 [Compound I-108, 2-[4-Chloro-3-(3-chloro-5-cyano-phenoxy)-2-fluoro-phenyl]-N-(2-methyl-4-methylsulfamoyl-phenyl)-acetamide] | 204.4 to 207.3 |
| CN(C(=O)Cc1ccc(Cl)c(Oc2cc(Cl)cc(C#N)c2)c1F)c1ccccc1Cl [Compound I-111, 2-[4-Chloro-3-(3-chloro-5-cyano-phenoxy)-2-fluoro-phenyl]-N-(2-chloro-phenyl)-N-methyl-acetamide] | 134 to 137.1 |
| Cc1ccc(CC(=O)Nc2ccc(S(C)(=O)=O)cc2Cl)c(F)c1Oc1cc(C#N)cc(C(F)F)c1 [Compound I-112, N-(2-Chloro-4-methanesulfonyl-phenyl)-2-[3-(3-cyano-5-difluoromethyl-phenoxy)-2-fluoro-4-methyl-phenyl]-acetamide] | 179.9 to 182 |
| N#Cc1cc(Oc2c(F)c(CC(=O)Nc3ccc(S(N)(=O)=O)cc3)cc(Br)c2Br)cc(C(F)F)c1 [Compound I-114, 2-[4,5-Dibromo-3-(3-cyano-5-difluoromethyl-phenoxy)-2-fluoro-phenyl]-N-(4-sulfamoyl-phenyl)-acetamide] | 144 to 147 |
| Cc1cc(S(=O)(=O)N2CCSCC2)ccc1NC(=O)Cc1ccc(C)c(Oc2cc(Cl)cc(C#N)c2)c1 [Compound I-117, 2-[3-(3-Chloro-5-cyano-phenoxy)-4-methyl-phenyl]-N-[2-methyl-4-(thiomorpholine-4-sulfonyl)-phenyl]-acetamide] | 151.9 to 155.3 |
| Cc1cc(S(=O)(=O)NCCN2CCOCC2)ccc1NC(=O)Cc1ccc(C)c(Oc2cc(Cl)cc(C#N)c2)c1 [Compound I-118, 2-[3-(3-Chloro-5-cyano-phenoxy)-4-methyl-phenyl]-N-[2-methyl-4-(2-morpholin-4-yl-ethylsulfamoyl)-phenyl]-acetamide] | 177 to 181 |
| Cc1cc(S(N)(=O)=O)ccc1NC(=O)Cc1ccc(Cl)c(Oc2cc(C#N)cc(C(F)(F)F)c2)c1F [Compound I-120, 2-[4-Chloro-3-(3-cyano-5-trifluoromethyl-phenoxy)-2-fluoro-phenyl]-N-(2-methyl-4-sulfamoyl-phenyl)-acetamide] | 212 to 216.1 |
| Cc1cc(S(=O)(=O)NC2CCC(O)CC2)ccc1NC(=O)Cc1ccc(C)c(Oc2cc(Cl)cc(C#N)c2)c1 (centres unmarked) [Compound I-121, 2-[3-(3-Chloro-5-cyano-phenoxy)-4-methyl-phenyl]-N-[4-(4-hydroxy-cyclohexylsulfamoyl)-2-methyl-phenyl]-acetamide] | 195.1 to 197.7 |
| Cc1cc(S(N)(=O)=O)ccc1NC(=O)Cc1ccc(C)c(Oc2cc(Cl)cc(C#N)c2)c1 [Compound I-122, 2-[3-(3-Chloro-5-cyano-phenoxy)-4-methyl-phenyl]-N-(2-methyl-4-sulfamoyl-phenyl)-acetamide] | 192.8 to 194.1 |
| Cc1ccc(CC(=O)Nc2ccc(S(N)(=O)=O)cc2Cl)cc1Oc1cc(Cl)cc(C#N)c1 [Compound I-123, 2-[3-(3-Chloro-5-cyano-phenoxy)-4-methyl-phenyl]-N-(2-chloro-4-sulfamoyl-phenyl)-acetamide] | 194 to 194.9 |
